The record followed here is patent publication US20080085889A1, “Amidomethyl-Substituted 1-(Carboxyalkyl) Cyclopentyl-Carbonylamino-Benzazepine-N-Acetic Acid Compounds, Process and Intermediate Products for Their Preparation and Pharmaceutical Compositions Containing Them” (SOLVAY PHARMACEUTICALS GmbH, priority 2003, published 2008).

Like-named read-outs stand apart in the source and are kept apart here.

For assay [1], the system named is maximal SAP response to Big-ET. Kind of assay: In vivo inhibition of maximal SAP response to Big-ET in anesthetized rats after oral administration. Further details: species or system Rats (Sprague-Dawley). The following applies: oral by gavage, 100 μmol/kg, 1 h before Big-ET challenge; mean ± standard error; negative = inhibition. As for the experimental part: Rats (Sprague-Dawley, CRLD=Charles River) were anaesthetised with 1 ml/kg Rompun/Ketavet 1:1. A pressure transducer (Statham) was inserted into the carotid artery to measure blood pressure.
For oral testing, the substances (or vehicle) were given by gavage at doses of 100 μmol/kg each, 1 h before the Big-ET challenge, and blood pressure and heart rate were monitored as described above.
The inhibition of maximal SAP response to Big-ET in anesthetized rats following oral administration of the test substances of Formula I is set forth in the following Table 3c: […]
Data given in table 3c as negative values indicate an inhibitory effect. Values are means from 3-6 independent series of experiments ±standard error.

The subject of assay [2] is NEP (prepared from pig kidney cortex). Kind of assay: Enzymatic breakdown of CNP and VIP by NEP and its inhibition, in vitro, HPLC. It is filed as biochemical. As for the experimental part:
The inhibition of the enzymatic breakdown of CNP and VIP by the compounds used according to the invention was measured in an enzymatic in vitro assay according to the following protocol:
All test compounds were dissolved in DMSO at 10 mM and further diluted with assay buffer.
80 μl of assay buffer, 10 μl of enzyme working solution (NEP or hSEP) and 10 μl of peptide stock solution (VIP or CNP) were mixed in an Eppendorf vial and incubated for 120 min. at 37° C. The enzymatic reaction was subsequently terminated by heating to 95° C. for 5 min. After centrifugation (Heraeus Biofuge B, 3 min) the supernatant was subjected to HPLC.
70 μl of assay buffer, 10 μl of enzyme working solution (NEP or hSEP) and 10 μl of a test compound solution were mixed in an Eppendorf vial and preincubated at 37° C. for 15 minutes. Then, 10 μl of peptide stock solution (VIP or CNP) was added and the reaction mixture was incubated at 37° C. for 60 min. to allow enzymatic hydrolysis. […]
All peptides were detected by absorbance at 214 nm (UV spectroscopy). The percentage (=%) of hydrolysis was calculated on the basis of the peak area of the undegraded peptide for an enzyme containing sample Y in correlation to a sample containing the same concentration of peptide without enzyme (blank) by the following equation: % hydrolysis=100*(blank−Y) […]

For `CN(C)CCCN(C)C(=O)CC(CC1(C(=O)NC2CCc3ccccc3N(CC(=O)O)C2=O)CCCC1)C(=O)O` (stereo not drawn) [Example 64, 2-[(1-{[1-(carboxymethyl)-2-oxo-2,3,4,5-tetrahydro-1H-1-benzazepin-3-yl]carbamoyl}cyclopentyl)methyl]-4-{[3-(dimethylamino)propyl](methyl)amino}-4-oxobutanoic acid], the “% substance-related inhibition of the maximum Big-ET effect on SAP vs. control” value in assay [1] is listed as −53 ± 5%.

“{(3S)-3-[({1-[(2″rel1″)-2-ethoxycarbonyl)-4-(isopropylamino)-4-oxobutyl]cyclopentyl}-carbonyl)amino]-2-oxo-2,3,4,5-tetrahydro-1H-1-benzazepin-1-yl}acetic acid [Example 4]”: the IC50 in assay [2] (substrate CNP (32-53), read-out: inhibition of breakdown of CNP by NEP, IC50) stood at 10.1 nM; in assay [2] (substrate VIP, read-out: inhibition of breakdown of VIP by NEP, IC50), 3.1 nM.

The IC50 is the point on the concentration scale where inhibition reaches its midpoint.
